Reference: patent US20090203749A1, “AGENT FOR CONTROL OF DEGRANULATION REACTION AND CYTOKINE PRODUCTION” (RIKEN, priority 2005, published 2009)

What was measured:
[1] = system: bone marrow-derived mast cells; test: antigen stimulation-dependent chemical mediator (β-hexosaminidase) release (degranulation) from mast cells; assay type: cell-based; conditions: TPEN 0, 2, 5 and 10 μM; IgE-sensitized mast cells stimulated with DNP-HSA for 30 minutes; FIG. 1
Procedure: The mast cells used were bone marrow-derived mast cells whose differentiation was induced by culturing bone marrow cells with interleukin-3 for 5 weeks. The obtained bone marrow-derived mast cells (1×10^7 cells) were sensitized with 1 μg/mL IgE antibody (SPE-7 clone; available from SIGMA) for 6 hours. After sensitization, the cells were resuspended in Tyrode's buffer (pH 7.4). The composition of the Tyrode's buffer is as described in Table 1.
The obtained mast cell suspension was stimulated with an antigen (DNP-HSA; dinitrophenyl conjugated Human Serum Albumin; available from SIGMA) at each concentration (shown in FIG. 1) for 30 minutes. To investigate the effect of zinc ions, a zinc ion chelator TPEN (0, 2, 5 and 10 μM) was allowed to coexist with the cells for 2 hours during the sensitization period and for 30 minutes of the stimulation. Chemical mediator β-hexosaminidase released from the mast cells was measured. The activity of β-hexosaminidase was measured with an absorption spectrometer at wavelength of 405 nm by using 4-nitrophenyl N-acetyl-β-D-glucosaminide (available from SIGMA) as a substrate. The extracellular release of entire β-hexosaminidase present in the cell was defined as 100%.

[2] = system: bone marrow-derived mast cells; test: restoration of TPEN effect on β-hexosaminidase release by enforced introduction of zinc ion; assay type: cell-based; conditions: TPEN 10 μM; 1 μM pyrithione and zinc ions during DNP-HSA stimulation; FIG. 2
Procedure: As mast cells sensitized with IgE antibody, the cells prepared in the same way as in Example 1 were used. After sensitization, the mast cells were resuspended in Tyrode's buffer. A zinc ion chelator TPEN (10 μM) was allowed to coexist with the cells for 2 hours during the sensitization period and for 30 minutes of the stimulation. To introduce zinc ions into the cells, the cells were treated with 1 μM pyrithione (Molecular probes, p-24193) during the stimulation, and zinc ions were added at each concentration (shown in FIG. 2) to Tyrode's buffer. The activity of β-hexosaminidase was measured in the same way as in Example 1. TPEN-untreated cells were used as a control, and the extracellular release of entire β-hexosaminidase present in the cell was defined as 100%.

[3] = system: bone marrow-derived mast cells; test: cytokine production (IL-6 and TNF-α) of mast cells, ELISA; assay type: cell-based; conditions: TPEN 0, 2, 5 and 10 μM; DNP-HSA 100 ng/ml for 6 hours; FIG. 3
Procedure: As mast cells sensitized with IgE antibody, the cells prepared in the same way as described in Example 1 were used. After sensitization, the mast cells were resuspended in Tyrode's buffer. The mast cell suspension was stimulated with an antigen (DNP-HSA) at a concentration of 100 ng/ml for 6 hours. To investigate the effect of zinc ions, a zinc ion chelator TPEN (0, 2, 5 and 10 μM) was allowed to coexist with the cells for 2 hours during sensitization and for 6 hours of the stimulation.
The concentrations of cytokines (IL-6 and TNF-α) in the supernatant were determined using ELISA (BIOSOURCE).

[4] = system: passive cutaneous anaphylaxis; test: passive cutaneous anaphylaxis (type I allergy) model, Evans blue dye leakage; assay type: in vivo; conditions: TPEN intraperitoneally 30 minutes before DNP-BSA challenge; mouse ear; FIG. 4
Procedure: Mouse (6 week-old female, Balb/c Ajc1, CLEA Japan) was sensitized by subcutaneously administering 0.5 μg of IgE antibody (SPE-7, SIGMA) into the ear in order to induce passive cutaneous anaphylaxis. 30 minutes later, passive cutaneous anaphylaxis was induced by intravenous injection of 250 μg of antigen DNP-BSA (COSMOBIO) and 1.25 mg of Evans blue (SIGMA) into the tail of the mouse. In order to digitalize Evans blue dye leakage, the dye was extracted from the ear of the mouse using formamide. The extracted dye was measured by absorbance at wavelength of 620 nm. The amount of dye in each experiment was calculated from the analytical curve obtained by known amounts of Evans blue.

With `c1ccc(CN(CCN(Cc2ccccn2)Cc2ccccn2)Cc2ccccn2)nc1` [TPEN, N,N,N′,N′-tetrakis(2-pyridylmethyl)ethylenediamine] the “chemical mediator (β-hexosaminidase) release” value [1] was “concentration-dependent suppressive effect”, the “suppressive effect on the chemical mediator release after addition of zinc ions” value [2] was “restored by the addition of the zinc ions” and the “cytokine production (IL-6 and TNF-α in supernatant)” value [3] was “dose dependent suppression”. The “dye leakage of Evans blue” value [4] was “suppressed dose-dependently”.
